Results published in patent US7491707B1, “Synthetic lipid-a-analogs and uses thereof” (Biomira, Inc., priority 1999, dated 2009).

Experiments:
[1] = literature bioassays; cited from earlier work
T-cell = T-cell proliferation (3H thymidine incorporation) of lymph node lymphocytes from mice immunized with MUC1-based liposomal vaccine adjuvanted with Lipid-A analog; format: in vivo, C57-Black mice
Protocol: (§1) Typically, the liposomal formulation was composed of 400 μg of MUC1-based lipopeptide BP1-148, H2N-[…](Pal)G-OH, 200 μg of Lipid-A analog, 6.94 mg of cholesterol, 1.46 mg of dimyristoyl phosphatidylglycerol ([…]) and 11.62 mg of dipalmitoyl phosphatidylcholine (DPPC) per 1 ml of saline (0.9% NaCl solution).
(§2) The liposomal constructs were formulated by first dissolving the phospholipids, cholesterol and Lipid A analog in tert-butanol at about 53° C. Lipopeptide and water (5%, v/v) were then added to the tert-butanol solution. The resulting clear 95% tert-butanol solution was injected into about 4 volumes of rapidly stirred water at about 50° C., using a glass syringe with an 18-gauge needle. The small unilamellar vesicles (SUV) formed in this process were cooled, sterilized by filtration through a 0.22 μm membrane filter, filled into vials and lyophilized. The dry powder was re-hydrated with sterile saline before injection, resulting in the formation of multilamellar large vesicles (MLV). The liposomes formed are used to immunize mice.
(§3) Groups of C57-Black mice were immunized subcutaneously with the liposomal vaccine containing 40 μg of MUC1-based lipopeptide BP1-148 (FIG. 34), which has the peptide sequence of H2N-[…](Pal) G-OH, and 20 μg of Lipid-A analog per dose. Nine days after vaccine injection mice were sacrificed and lymphocytes were taken from the draining lymph nodes (local response) or from the spleens (systemic response) to determine the immune response in each group. The lymphocytes taken from immunized mice were incubated in in vitro cultures in the presence of MUC1-based boosting antigen BP1-151, which has the peptide sequence H2N-[…]-OH.
T-cell proliferation was evaluated using a standard ^3H thymidine incorporation assay. Briefly, nylon wool passed inguinal lymph node lymphocytes from each mouse were added to a culture containing 106 native mitomycin C treated syngeneic splenocytes, which serves as antigen presenting cells (APCs). To each well 20 μg of MUC1-based boosting peptide BP1-151, H2N-[…]-OH (single letter amino acid code, Table 8), was added for positive control; and cultures containing no antigen or peptide BP1-72, which has the peptide sequence H2N-[…]-OH, were used as negative control. The culture was incubated for 72 h in a total volume of 250 μl well, followed by adding 1 μCi of ^3H-thymidine in a volume of 50 μl. The plates were incubated for an additional 18-20 h. Cells were harvested and [^3H]dTh incorporation was measured by liquid scintillation counter. T-cell proliferation results corresponding to various liposomal vaccines adjuvanted, with different Lipid-A analogs are summarized in Tables 1-Table 3 and FIG. 31-FIG. 33.

Interferon-gamma (IFN-γ) = Interferon-gamma (IFN-γ) production in cell culture supernatants by ELISA, lymphocytes of mice immunized with adjuvanted MUC1 liposomal vaccine; format: in vivo, C57-Black mice
Protocol: as §1, §2, §3
Interferon-gamma (IFN-γ) levels were determined in the cell culture supernatants using enzyme-linked immunoabsorbent assay (ELISA). 96-Well plates were coated with 50 μl of catcher Mabs in 50 μl of R4.6AZ at 37° C. for 30 min. The plates were then washed and incubated with test samples for 45 min. After two washes the second biotinylated antibody, XMG1.2 was added. After washing, peroxidase-conjugated streptavidin was added and incubated again for 30 min. Finally, 100 μl of horseradish peroxidase (HRPO) substrate solution was added. The optical density was measured with a Thermomax ELISA reader at 405 nm wavelength in kinetic mode for 10 min. The interferon-gamma (IFN-γ) levels corresponding to various Lipid-A analogs are shown in Table 1-Table 3 and FIG. 31-FIG. 33.

[2] = Solubility of Lipid-A analogs for incorporation into liposomes; format: physicochemical; conditions: in words; given as cause of poor incorporation into liposomes
[3] = in words, liposomal vaccine formulations in mice, FIG. 31-FIG. 33

monophosphoryl Lipid-A
potency on a molar basis in eliciting toxic and pyrogenic responses, compared to diphosphoryl Lipid-A [1]: 1000 times less potent

CCCCCCCCCCCCCC(=O)N[C@@H](CC(=O)N[C@H]1C(O)O[C@H](CO)[C@@H](OP(=O)(O)O)[C@@H]1OC(=O)CCCCCCCCCCCCC)C(=O)NCCCCCCCCC (stereo partly drawn) [Compound 33, 2-Deoxy-4-O-phosphono-2-[(3S)-3-tetradecanamido-4-nonylamino-4-oxo-butanamido]-3-O-tetradecanoyl-α/β-D-glucopyranose]
T-cell-Proliferation (CPM) (T-cell; Table 1, first test group, s.c. liposomal vaccine 40 μg BP1-148 + 20 μg Lipid-A analog per dose, nine days after injection, boosting antigen BP1-151): 822 CPM
T-cell blastogenesis (T-cell; [3]): inactive
Interferon-gamma (IFN-γ, pg/ml) (Interferon-gamma (IFN-γ); Table 1, first test group, s.c. liposomal vaccine 40 μg BP1-148 + 20 μg Lipid-A analog per dose, nine days after injection): 0 pg/mL
interferon-gamma production (Interferon-gamma (IFN-γ); [3]): inactive
solubility [2]: poor solubility
